Experiments:
[1] = molecular target: T1, adenosine receptor A2b (Homo sapiens, UniProt P29275); assay: cAMP experiment on Gs-coupled adenosine receptor A2b (HEK293); type: cell-based; settings: cAMP accumulation, NECA EC80; read-out: IC50 (nM) HEK293 cells (ADORA2B)
T1 construct: host or cells: HEK293
T1 sequence (P29275 1-332): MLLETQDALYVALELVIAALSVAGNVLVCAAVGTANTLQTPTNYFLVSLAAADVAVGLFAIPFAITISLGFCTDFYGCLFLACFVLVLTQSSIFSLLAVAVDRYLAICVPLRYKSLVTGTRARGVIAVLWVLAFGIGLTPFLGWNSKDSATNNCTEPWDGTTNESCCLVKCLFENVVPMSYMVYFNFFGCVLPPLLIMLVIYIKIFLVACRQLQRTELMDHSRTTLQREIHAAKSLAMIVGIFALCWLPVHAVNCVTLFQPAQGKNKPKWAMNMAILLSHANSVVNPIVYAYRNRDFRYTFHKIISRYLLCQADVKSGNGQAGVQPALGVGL
Protocol: In this experiment, a HEK293 cell line stably expressing the adenosine receptor A2b was taken as a study object (PerkinElmer, ES-013-C) for the experiment. […] A solution system for cell inoculation was 10 μL of cAMP experimental buffer. […] Similarly, 10 mM test compound was also subjected to 3-fold gradient dilution in 100% DMSO. The gradient-diluted reference compound and test compound were added to a 384-well compound plate (Labcyte, PP-0200). 10 nL of the gradient-diluted reference agonist NECA per well was transferred to a test plate containing cells by using Echo (Labcyte, 550), and the test plate was incubated for 30 minutes at 37° C. 5 μL of Eu-cAMP tracer working solution and 5 μL of ULight-anti-cAMP working solution (PerkinElmer, TRF0263) were added to the test plate per well, and the test plate was incubated for 30 minutes at 25° C. […] 1000×EC80 NECA was prepared with 100% DMSO. […] The test plate was incubated for 20 minutes at 25° C., and then 10 nL of the 1000×EC80 NECA per well was transferred to the test plate. The test plate was incubated for 30 minutes at 37° C. 5 μL of Eu-cAMP tracer working solution and 5 μL of ULight-anti-cAMP working solution were added to the test plate per well, and the test plate was incubated for 30 minutes at 25° C. The fluorescence signal ratio of each well in the test plate was read, and the IC50 value of the compound was calculated by using the output data of the reference inhibitor and test compound and the concentration of the compound.

[2] = molecular target: T2, human ADORA2B (Homo sapiens, UniProt P29275); assay: Calcium flow test (FLIPR), ADORA2B stably transfected HEK293; type: cell-based; settings: Table 9
T2 construct: host or cells: HEK293
Source text: The binding of the A2AR agonist to A2AR could activate a downstream pathway to increase the intracellular calcium ion concentration. The antagonist would competitively occupy the binding site where the agonist binds to A2AR, thereby interrupting the intracellular signal transduction and leading to a change in the intracellular calcium ion concentration. By detecting the strength of the intracellular calcium ion signal, the antagonistic activities of the compound on human ADORA1, ADORA2A, ADORA2B and ADORA3 adenosine receptors were determined. […]
7) The FLIPR instrument software was operated; following a set program, 10 μL of experimental buffer salt solution was added to the cell plate; and fluorescence signals were read. Then, 10 μL of the reference compound of agonist at a predetermined concentration was added to the cell plate, and the fluorescence signals were read. After reading, data was exported by means of “Max-Min” and “Read 91 to Maximum allowed” in the software, the EC80 of each cell line was calculated, and an agonist with a concentration of 6×EC80 was prepared.
9) The FLIPR instrument software was operated; following a set program, 10 μL of the test compound and 10 μL of the reference compound were added at a predetermined concentration to the cell plate; and the fluorescence signals were read. […]

[3] = Pharmacokinetics of Compounds 27, 40, 22 and 41 in ICR mice in different modes of administration; type: in vivo; settings: for Drug accumulation after consecutive oral administration: 30 mg/kg oral; for AUC(0-t) / Cmax / half-life: ICR; for AUC(0-t) / Cmax / half-life / clearance: mouse, in vivo; for clearance: IV, read-out: Cl—pred (converted)
Source text: WinNonlin® 6.4 was used as the calculation software for PK parameters.

[4] = po, 30 mg/kg, PO (after 7 consecutive days of administration), 30 mg/kg
[5] = PO (after 7 consecutive days of administration), 30 mg/kg

Row | SMILES | IC50 [1] | IC50 [2] | Drug accumulation after consecutive oral administration [3] | AUC(0-t) ([3]; iv, 1 mg/kg) | Cmax ([3]; iv, 1 mg/kg) | half-life ([3]; iv, 1 mg/kg) | AUC(0-t) ([3]; po, 5 mg/kg) | Cmax ([3]; po, 5 mg/kg) | half-life ([3]; po, 5 mg/kg) | AUC(0-t) [3, 4] | Cmax [3, 4] | half-life [3, 4] | AUC(0-t) ([3]; po, 30 mg/kg, PO (single)) | Cmax ([3]; po, 30 mg/kg, PO (single)) | half-life ([3]; po, 30 mg/kg, PO (single)) | Cl—F—pred [3, 5] | Cl—F—pred ([3]; PO (single), 30 mg/kg) | Cl—F—pred ([3]; PO, 5 mg/kg) | F ([3]; PO, 5 mg/kg) | clearance ([3]; 1 mg/kg)
1 | Nc1nc(NCCc2ccc(NC3COC3)cc2)nc2nc(-c3ccco3)nn12 [Compound 22, 2-(furan-2-yl)-N5-(4-(oxetan-3-ylamino)phenethyl)-[1,2,4]triazolo[1,5-a][1,3,5]triazine-5,7-diamine] | 380 nM | 106 ± 29.2 nM | significant drug accumulation is not observed | 925 ng·h/mL | 1690 ng/mL | 0.94 h | 3960 ng·h/mL | 3510 ng/mL | 2.74 h | 15400 ng·h/mL | 4800 ng/mL | 3.04 h | 18000 ng·h/mL | 9650 ng/mL | 2.22 h | 32.5 mL/min/kg | 27.8 mL/min/kg | 21 mL/min/kg | 85.72% | 18.2 mL/min/kg
2 | COCCNc1ccc(CCNc2nc(N)n3nc(-c4ccco4)nc3n2)cc1 [Compound 27, 2-(furan-2-yl)-N5-(4-((2-methoxyethyl)amino)phenethyl)-[1,2,4]triazolo[1,5-a][1,3,5]triazine-5,7-diamine] | 307 nM | – | significant drug accumulation is not observed | 495 ng·h/mL | 993 ng/mL | 0.67 h | 3100 ng·h/mL | 1550 ng/mL | 1.19 h | 41700 ng·h/mL | 17300 ng/mL | 1.86 h | 33600 ng·h/mL | 14500 ng/mL | 1.12 h | 12 mL/min/kg | 15.3 mL/min/kg | 27.5 mL/min/kg | 125.29% | 33.8 mL/min/kg
3 | Cn1nnc(-c2ccc(CCNc3nc(N)n4nc(-c5ccco5)nc4n3)cc2)n1 [Compound 40, N5-(4-(2-methyl-2H-tetrazol-5-yl)phenethyl)-2-(furan-2-yl)-[1,2,4]triazolo[1,5-a][1,3,5]triazine-5,7-diamine] | 343 nM | 194 ± 25.5 nM | significant drug accumulation is not observed | 1540 ng·h/mL | 1880 ng/mL | 2.49 h | 5540 ng·h/mL | 2130 ng/mL | 2.36 h | 10600 ng·h/mL | 2330 ng/mL | 2.79 h | 24400 ng·h/mL | 14400 ng/mL | 1.65 h | 47 mL/min/kg | 20.5 mL/min/kg | 15 mL/min/kg | 71.99% | 10.8 mL/min/kg
